Measured values taken from US12486279B2, “Indole alkaloid with fungicidal effect” (priority 2020, dated 2025).
Values after ≈ are worked out from the molar mass of the structure shown. Like-named read-outs stand apart in the source and are kept apart here.

Key:
[1] = test system: Colletotrichum gloeosporioides; assay: Minimum inhibitory concentration (MIC), triphenyl tetrazolium chloride reduction, Colletotrichum gloeosporioides; type: cell-based; conditions: for Growth of the fungus on plates: 7.81 to 250 mg/mL, analyst 1; for Growth of the fungus on plates / Absorbance compared with the control: both days; for MIC: Colletotrichum gloeosporioides; for Absorbance compared with the control: all 8 concentrations
Description: First, its effect on the growth of samples of Colletotrichum gloeosporioides was assessed. The weighting of the activity was established in a spectrophotometric model through the reduction of Triphenyl Tetrazolium Chloride as a measure of […] metabolism (oxide reduction system). The C. gloeosporioides samples were incubated for 24 h at 37° C. in the presence of increasing amounts of Andranone and the control agents Chlorothalonil and Mancozeb. After the indicated time, the amount of formazan produced was assessed by colorimetry, which is indicative of the amount of viable fungal cells after the treatments.

[2] = test system: Fusarium oxysporum; assay: Minimum inhibitory concentration (MIC), Fusarium oxysporum; type: cell-based; conditions: for Trend of absorbance with concentration: FIG. 6, 2 days; for Growth of the fungus on plates: 15.62-2000 mg/mL
[3] = acidic or neutral conditions; cited from earlier work
[4] = test system: various fish species; conditions: 48 to 96 h after exposure; cited from earlier work
[5] = test system: Daphnia magna; conditions: cited from earlier work
[6] = test system: small fish; conditions: cited from earlier work
[7] = test system: agricultural workers; conditions: exposed agricultural workers (Dennis et al. 2010); cited from earlier work
[8] = test system: women exposed to Mancozeb; conditions: exposed women (Van Wendel de Joode et al. 2014); cited from earlier work
[9] = 6 technical replicates, 2 days, with standard deviation, 24 h at 37° C.

N#Cc1c(Cl)c(Cl)c(Cl)c(C#N)c1Cl [Chlorothalonil, tetrachloro-isophthalonitrile]
Growth of the fungus on plates [1]: the fungus was not able to grow in any of the evaluated concentrations
MIC ([1]; 6 technical replicates, 2 days, with standard deviation, 24 h at 37° C., read-out: Minimum inhibitory concentration (MIC), Average Analyst 1): 7.8 mg/mL (≈ 29.3 mM)
MIC ([1]; 6 technical replicates, 2 days, with standard deviation, 24 h at 37° C., read-out: Minimum inhibitory concentration (MIC), Average Analyst 2): 23.4 ± 22.1 mg/mL (≈ 88 mM)
MIC ([1]; average of 2 analysts, with standard deviation, read-out: Minimum inhibitory concentration (MIC), Average): 15.6 ± 11 mg/mL (≈ 58.7 mM)
Absorbance compared with the control [1]: lower absorbances than the control in the 8 concentrations
Trend of absorbance with concentration [2]: trend similar to that of Mancozeb
MIC ([2]; Fusarium oxysporum, average of a biological replica on 2 different days): 1 mg/mL (≈ 3.76 mM)
Absorbance (570 nm) ([2]; at the concentration at which the MIC was established, average of 2 days): 0.45 ± 0.04
Inhibition Type ([2]; class from MIC): Moderate (a moderate inhibition occurs in compounds with a MIC between 0.6 to 1 mg/mL)
Growth of the fungus on plates ([2]; day 1): the fungus was not able to grow in the highest concentrations of this fungicide
Growth of the fungus on plates ([2]; day 2): a slight growth of the fungus was observed, mainly at concentrations of 125 to 2000 mg/mL
Stability to hydrolysis [3]: stable to hydrolysis
Median lethal toxicity values (LC50) [4]: less than 20 μg/L
Concentration causing a delay in reproduction [5]: 32 ng/mL
Concentration decreasing eggs per spawning, hatchability of eggs and survival of the fry [6]: 6.5 ng/mL

Mancozeb
Minimum inhibitory concentration (MIC), Average Analyst 1 [1, 9]: 7.8 ± 0.0 mg/mL
Minimum inhibitory concentration (MIC), Average Analyst 2 [1, 9]: 15.6 ± 11.0 mg/mL
Growth of the fungus on plates [1]: no growth of the fungus was observed in any of the concentrations evaluated
Absorbance compared with the control [1]: the absorbance is lower compared to the absorbance of the control
Minimum inhibitory concentration (MIC), Average ([1]; average of 2 analysts, with standard deviation): 11.7 ± 5.5 mg/mL
Trend of absorbance with concentration [2]: the absorbance increases as the concentration of this compound increase
Growth of the fungus on plates ([2]; both days, no change in salt color): a slight growth of the fungus was observed, mainly at concentrations of 250 to 2000 mg/mL
Risk of developing cutaneous melanoma [7]: significantly increases the risk of developing cutaneous melanoma
Ethylene thiourea (ETU) in urine [8]: elevated levels of ethylene thiourea in urine
